In ChEMBL document CHEMBL1201862, “PubChem BioAssay data set” (2004):
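Each compound was tested at five concentrations against cells in 96-well plates for 48 hours. Abbreviation: GI50, concentration required for 50% inhibition of growth.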 The source made the active and inactive calls. Rule as the data show it: active = GI50 up to about 1.1 µM and inactive = higher.

What was measured:
Assay in all cases: DTP human tumour cell line panel, 48 h
786-0 = system: 786-0
A498 = system: A498
A549 = system: A549
ACHN = system: ACHN
BT-549 = system: BT-549
CAKI-1 = system: CAKI-1
CCRF-CEM = system: CCRF-CEM
COLO 205 = system: COLO 205
DU-145 = system: DU-145
EKVX = system: EKVX
HCT-116 = system: HCT-116
HCT-15 = system: HCT-15
HL-60 = system: HL-60
HOP-62 = system: HOP-62
HOP-92 = system: HOP-92
HT-29 = system: HT-29
Hs-578T = system: Hs-578T
IGROV-1 = system: IGROV-1
K562 = system: K562
KM12 = system: KM12
LOX IMVI = system: LOX IMVI
M14 = system: M14
MCF7 = system: MCF7
MDA-MB-231 = system: MDA-MB-231
MDA-MB-435 = system: MDA-MB-435
MDA-N = system: MDA-N
MOLT-4 = system: MOLT-4
Malme-3M = system: Malme-3M
NCI-H226 = system: NCI-H226
NCI-H23 = system: NCI-H23
NCI-H460 = system: NCI-H460
NCI-H522 = system: NCI-H522
NCI/ADR-RES = system: NCI/ADR-RES
OVCAR-3 = system: OVCAR-3
OVCAR-4 = system: OVCAR-4
OVCAR-5 = system: OVCAR-5
OVCAR-8 = system: OVCAR-8
PC-3 = system: PC-3
RPMI-8226 = system: RPMI-8226
RXF 393 = system: RXF 393
SF-268 = system: SF-268
SF-295 = system: SF-295
SF-539 = system: SF-539
SK-MEL-28 = system: SK-MEL-28
SK-MEL-2 = system: SK-MEL-2
SK-MEL-5 = system: SK-MEL-5
SK-OV-3 = system: SK-OV-3
SN12C = system: SN12C
SNB-19 = system: SNB-19
SNB-75 = system: SNB-75
SW-620 = system: SW-620
T47D = system: T47D
TK-10 = system: TK-10
U-251 = system: U-251
UACC-257 = system: UACC-257
UACC-62 = system: UACC-62
UO-31 = system: UO-31
SR = system: SR
HCC 2998 = system: HCC 2998

SMILES: CC1(C)N=C(N)N=C(N)N1c1cccc(OCc2cccc(N)c2)c1
- GI50 (786-0): 10.9 µM (inactive)
- GI50 (A498): > 93.1 µM (inactive)
- GI50 (A549): 7.21 µM (inactive)
- GI50 (ACHN): > 100 µM (inactive)
- GI50 (BT-549): > 65.9 µM (inactive)
- GI50 (CAKI-1): > 100 µM (inactive)
- GI50 (CCRF-CEM): 4.85 µM (inactive)
- GI50 (COLO 205): 37.8 µM (inactive)
- GI50 (DU-145): > 86.3 µM (inactive)
- GI50 (EKVX): > 88.3 µM (inactive)
- GI50 (HCT-116): 13.3 µM (inactive)
- GI50 (HCT-15): > 100 µM
- GI50 (HL-60): 5.61 µM (inactive)
- GI50 (HOP-62): > 91.6 µM (inactive)
- GI50 (HOP-92): > 49 µM (inactive)
- GI50 (HT-29): 16.9 µM (inactive)
- GI50 (Hs-578T): > 100 µM (inactive)
- GI50 (IGROV-1): 3.31 µM (inactive)
- GI50 (K562): 3.17 µM (inactive)
- GI50 (KM12): 49.9 µM (inactive)
- GI50 (LOX IMVI): 9.46 µM (inactive)
- GI50 (M14): 58.5 µM (inactive)
- GI50 (MCF7): 39.9 µM (inactive)
- GI50 (MDA-MB-231): > 71.4 µM (inactive)
- GI50 (MDA-MB-435): 16.4 µM (inactive)
- GI50 (MDA-N): 6.1 µM (inactive)
- GI50 (MOLT-4): 8.02 µM (inactive)
- GI50 (Malme-3M): > 71.9 µM (inactive)
- GI50 (NCI-H226): > 100 µM (inactive)
- GI50 (NCI-H23): 14.2 µM (inactive)
- GI50 (NCI-H460): 3.87 µM (inactive)
- GI50 (NCI-H522): 26.4 µM (inactive)
- GI50 (NCI/ADR-RES): > 100 µM (inactive)
- GI50 (OVCAR-3): 39.6 µM (inactive)
- GI50 (OVCAR-4): > 69.5 µM (inactive)
- GI50 (OVCAR-5): 26.9 µM (inactive)
- GI50 (OVCAR-8): > 83 µM (inactive)
- GI50 (PC-3): > 38.7 µM (inactive)
- GI50 (RPMI-8226): 56.1 µM (inactive)
- GI50 (RXF 393): 41.9 µM (inactive)
- GI50 (SF-268): 14.3 µM (inactive)
- GI50 (SF-295): > 79.6 µM (inactive)
- GI50 (SF-539): 19.9 µM (inactive)
- GI50 (SK-MEL-28): > 100 µM (inactive)
- GI50 (SK-MEL-2): > 100 µM (inactive)
- GI50 (SK-MEL-5): 12.4 µM (inactive)
- GI50 (SK-OV-3): > 100 µM (inactive)
- GI50 (SN12C): 19 µM (inactive)
- GI50 (SNB-19): 23.8 µM (inactive)
- GI50 (SNB-75): > 100 µM (inactive)
- GI50 (SW-620): > 100 µM (inactive)
- GI50 (T47D): > 100 µM (inactive)
- GI50 (TK-10): > 52.1 µM (inactive)
- GI50 (U-251): 14.7 µM (inactive)
- GI50 (UACC-257): 6.14 µM (inactive)
- GI50 (UACC-62): 6.11 µM (inactive)
- GI50 (UO-31): > 100 µM (inactive)

SMILES: Cc1cc(=O)[nH]c(-n2[nH]c3c(c2=O)CCCC3)n1
- GI50 (786-0): 57.7 µM (inactive)
- GI50 (A498): > 100 µM (inactive)
- GI50 (A549): 72.1 µM (inactive)
- GI50 (ACHN): 49.4 µM (inactive)
- GI50 (BT-549): > 100 µM (inactive)
- GI50 (CAKI-1): 70.1 µM (inactive)
- GI50 (CCRF-CEM): 34.5 µM (inactive)
- GI50 (COLO 205): 88.9 µM (inactive)
- GI50 (DU-145): > 100 µM (inactive)
- GI50 (EKVX): 58.2 µM (inactive)
- GI50 (HCT-116): 41.9 µM (inactive)
- GI50 (HCT-15): 31.3 µM
- GI50 (HL-60): 50.5 µM (inactive)
- GI50 (HOP-92): 31 µM (inactive)
- GI50 (HT-29): 44.5 µM (inactive)
- GI50 (Hs-578T): 92.9 µM (inactive)
- GI50 (IGROV-1): 97.3 µM (inactive)
- GI50 (K562): 52.2 µM (inactive)
- GI50 (KM12): > 100 µM (inactive)
- GI50 (M14): 73.1 µM (inactive)
- GI50 (MCF7): 63 µM (inactive)
- GI50 (MDA-MB-231): 67.9 µM (inactive)
- GI50 (MDA-MB-435): > 100 µM (inactive)
- GI50 (MDA-N): > 100 µM (inactive)
- GI50 (MOLT-4): 60.8 µM (inactive)
- GI50 (Malme-3M): > 100 µM (inactive)
- GI50 (NCI-H226): > 100 µM (inactive)
- GI50 (NCI-H23): 95.9 µM (inactive)
- GI50 (NCI-H460): 25.9 µM (inactive)
- GI50 (NCI-H522): > 100 µM (inactive)
- GI50 (OVCAR-4): > 100 µM (inactive)
- GI50 (OVCAR-5): 69 µM (inactive)
- GI50 (PC-3): 68.1 µM (inactive)
- GI50 (RPMI-8226): 74.1 µM (inactive)
- GI50 (RXF 393): 14.3 µM (inactive)
- GI50 (SF-268): 28.2 µM (inactive)
- GI50 (SF-295): 46 µM (inactive)
- GI50 (SF-539): 88.5 µM (inactive)
- GI50 (SK-MEL-28): 45.7 µM (inactive)
- GI50 (SK-MEL-2): 52.1 µM (inactive)
- GI50 (SK-MEL-5): 82 µM (inactive)
- GI50 (SK-OV-3): 93.1 µM (inactive)
- GI50 (SN12C): 77.8 µM (inactive)
- GI50 (SNB-19): > 100 µM (inactive)
- GI50 (SNB-75): < 0.01 µM (active)
- GI50 (SR): 63.1 µM (inactive)
- GI50 (SW-620): 56 µM (inactive)
- GI50 (T47D): > 100 µM (inactive)
- GI50 (TK-10): > 100 µM (inactive)
- GI50 (U-251): 58.5 µM (inactive)
- GI50 (UACC-257): 66.5 µM (inactive)
- GI50 (UACC-62): 39.2 µM (inactive)
- GI50 (UO-31): 59.6 µM (inactive)

SMILES: Cc1sc(C)c2c1C(=O)CC2N (stereo not drawn)
- GI50 (786-0): 7.98 µM (inactive)
- GI50 (A498): > 100 µM (inactive)
- GI50 (A549): 29.3 µM (inactive)
- GI50 (ACHN): 16.8 µM (inactive)
- GI50 (BT-549): 20 µM (inactive)
- GI50 (CAKI-1): 15.1 µM (inactive)
- GI50 (CCRF-CEM): 1.04 µM (active)
- GI50 (COLO 205): 17.1 µM (inactive)
- GI50 (DU-145): 15.9 µM (inactive)
- GI50 (EKVX): 44.9 µM (inactive)
- GI50 (HCC 2998): 19.3 µM (inactive)
- GI50 (HCT-116): 14.5 µM (inactive)
- GI50 (HCT-15): 31.3 µM
- GI50 (HL-60): 6.64 µM (inactive)
- GI50 (HOP-62): > 85.5 µM (inactive)
- GI50 (HOP-92): 18.5 µM (inactive)
- GI50 (HT-29): 24.9 µM (inactive)
- GI50 (Hs-578T): 44.8 µM (inactive)
- GI50 (IGROV-1): 34.7 µM (inactive)
- GI50 (K562): 4.85 µM (inactive)
- GI50 (KM12): 16.4 µM (inactive)
- GI50 (LOX IMVI): 13.1 µM (inactive)
- GI50 (M14): 14.1 µM (inactive)
- GI50 (MDA-MB-231): 22.7 µM (inactive)
- GI50 (MDA-MB-435): 20.8 µM (inactive)
- GI50 (MDA-N): 21.1 µM (inactive)
- GI50 (MOLT-4): 1.58 µM (inactive)
- GI50 (Malme-3M): 13.7 µM (inactive)
- GI50 (NCI-H226): > 37.8 µM (inactive)
- GI50 (NCI-H23): 32.1 µM (inactive)
- GI50 (NCI-H460): 29.1 µM (inactive)
- GI50 (NCI-H522): 3.3 µM (inactive)
- GI50 (NCI/ADR-RES): 50.4 µM (inactive)
- GI50 (OVCAR-3): 17.5 µM (inactive)
- GI50 (OVCAR-4): 28 µM (inactive)
- GI50 (OVCAR-5): > 100 µM (inactive)
- GI50 (OVCAR-8): 21.5 µM (inactive)
- GI50 (PC-3): 27.4 µM (inactive)
- GI50 (RPMI-8226): 2.7 µM (inactive)
- GI50 (RXF 393): 16.3 µM (inactive)
- GI50 (SF-268): > 40.9 µM (inactive)
- GI50 (SF-295): > 100 µM (inactive)
- GI50 (SF-539): 3.26 µM (inactive)
- GI50 (SK-MEL-28): > 42.7 µM (inactive)
- GI50 (SK-MEL-2): > 100 µM (inactive)
- GI50 (SK-MEL-5): 46.3 µM (inactive)
- GI50 (SK-OV-3): > 76.6 µM (inactive)
- GI50 (SN12C): 24.2 µM (inactive)
- GI50 (SNB-19): > 94.4 µM (inactive)
- GI50 (SNB-75): > 50.1 µM (inactive)
- GI50 (SR): 4.27 µM (inactive)
- GI50 (SW-620): 6 µM (inactive)
- GI50 (T47D): 17.4 µM (inactive)
- GI50 (TK-10): 19.1 µM (inactive)
- GI50 (U-251): 76.4 µM (inactive)
- GI50 (UACC-257): 17.5 µM (inactive)
- GI50 (UACC-62): 75.3 µM (inactive)
- GI50 (UO-31): 15.6 µM (inactive)
